Experimental data published in patent US20230085307A1, “PYRIDAZINONE COMPOUND AND HERBICIDE” (NISSAN CHEMICAL CORPORATION, priority 2019, published 2023).

How the values were obtained:
[1] = system: lambsquarters; assay: Test Example 5: herbicidal effect by foliage application, plastic box (Table 20, symbol O); type: in vivo, lambsquarters (Chenopodium album); details: foliage application, 320 g/ha; for O (lambsquarters) herbicidal effect grade: evaluated 3 weeks after application
In short: (§1)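 Sow seeds spot-wise in sterilized diluvial soil; cover with ~1.5 cm soil. Grow 14 days in greenhouse, 25° C. to 30° C. Spray foliage with emulsion diluted to predetermined amount. Rate effect after 3 weeks.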

[2] = system: windgrass; assay: Test Example 5: herbicidal effect by foliage application, plastic box (Table 20, symbol L); type: in vivo, windgrass (Apera spica-venti); details: foliage application, 320 g/ha; for L (windgrass) herbicidal effect grade: evaluated 3 weeks after application
In short: as §1

[3] = system: barnyard grass; assay: Test Example 5: herbicidal effect by foliage application, plastic box (Table 20, symbol H); type: in vivo, barnyard grass (Echinochloa crus-galli); details: foliage application, 320 g/ha; for H (barnyard grass) herbicidal effect grade: evaluated 3 weeks after application
In short: as §1

[4] = system: Chinese sprangletop; assay: Test Example 3: herbicidal effect by foliage application, Wagner pot (Table 18, symbol D); type: in vivo, chinese sprangletop (Leptochloa chinensis); details: amount of applied herbicide 320 g/ha
In short: (§2)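 Plants were sown in alluvial soil held under 0.1–0.5 cm standing water and grown 14 days in a greenhouse at 25–30 °C. An emulsifiable formulation, water-diluted to the set dose, was then sprayed onto the foliage, and effects were scored three weeks later using previously defined criteria.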

[5] = system: green foxtail; assay: Test Example 4: herbicidal effect by soil treatment (Table 19, symbol G); type: in vivo, green foxtail (Setaria viridis); details: amount of applied herbicide 320 g/ha
In short: (§3)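 Soil-surface application: an emulsion agent diluted with water to the predetermined dose is sprayed uniformly over seeds lying under roughly 1.5 cm of sterilized diluvial soil. Boxes stay in a greenhouse at 25° C. to 30° C. Three weeks later, each species is graded on previously defined criteria.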

[6] = system: barnyard grass; assay: Test Example 3: herbicidal effect by foliage application, Wagner pot (Table 18, symbol H); type: in vivo, barnyard grass (Echinochloa crus-galli); details: amount of applied herbicide 320 g/ha
In short: as §2

[7] = system: barnyard grass; assay: Test Example 4: herbicidal effect by soil treatment (Table 19, symbol H); type: in vivo, barnyard grass (Echinochloa crus-galli); details: amount of applied herbicide 320 g/ha
In short: as §3

[8] = system: persian speedwell; assay: Test Example 5: herbicidal effect by foliage application, plastic box (Table 20, symbol R); type: in vivo, Persian speedwell (Veronica persica); details: foliage application, 320 g/ha; for R (persian speedwell) herbicidal effect grade: evaluated 3 weeks after application
In short: as §1

[9] = system: Japanese bulrush; assay: Test Example 1: herbicidal activity, application before weed generation under submerged conditions (Table 16, symbol B); type: in vivo, Japanese bulrush (Schoenoplectus juncoides); details: amount of applied herbicide 320 g/ha
In short: (§4)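 Submerged Wagner pots (alluvial soil, 4 cm water) sown with weed seeds and planted with 2.5-leaf rice seedlings; emulsifiable concentrate diluted in water applied to water surface on sowing day. Held in greenhouse at 25-30 °C; injury scored 0-5 by herbicidal rate after three weeks.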

[10] = system: southern crabgrass; assay: Test Example 4: herbicidal effect by soil treatment (Table 19, symbol F); type: in vivo, southern crabgrass (Digitaria ciliaris); details: amount of applied herbicide 320 g/ha
In short: as §3

[11] = system: green foxtail; assay: Test Example 5: herbicidal effect by foliage application, plastic box (Table 20, symbol G); type: in vivo, green foxtail (Setaria viridis); details: foliage application, 320 g/ha; for G (green foxtail) herbicidal effect grade: evaluated 3 weeks after application
In short: as §1

[12] = system: wild oat; assay: Test Example 5: herbicidal effect by foliage application, plastic box (Table 20, symbol I); type: in vivo, wild oat (Avena fatua); details: foliage application, 320 g/ha; for I (wild oat) herbicidal effect grade: evaluated 3 weeks after application
In short: as §1

[13] = system: redroot pigweed; assay: Test Example 4: herbicidal effect by soil treatment (Table 19, symbol N); type: in vivo, redroot pigweed (Amaranthus retroflexus); details: amount of applied herbicide 320 g/ha
In short: as §3

[14] = system: rice flat sedge; assay: Test Example 3: herbicidal effect by foliage application, Wagner pot (Table 18, symbol E); type: in vivo, rice flat sedge (Cyperus iria); details: amount of applied herbicide 320 g/ha
In short: as §2

[15] = system: windgrass; assay: Test Example 4: herbicidal effect by soil treatment (Table 19, symbol L); type: in vivo, windgrass (Apera spica-venti); details: amount of applied herbicide 320 g/ha
In short: as §3

[16] = system: velvetleaf; assay: Test Example 4: herbicidal effect by soil treatment (Table 19, symbol M); type: in vivo, velvetleaf (Abutilon theophrasti); details: amount of applied herbicide 320 g/ha
In short: as §3

[17] = system: oval-leafed pondweed; assay: Test Example 1: herbicidal activity, application before weed generation under submerged conditions (Table 16, symbol C); type: in vivo, oval-leafed pondweed (Monochoria vaginalis); details: amount of applied herbicide 320 g/ha
In short: as §4

## CSc1ccc(-c2oc3ccc(C)cc3c2-c2c(O)c(C)nn(C)c2=O)cc1 [9-055]
[1]
  O (lambsquarters) herbicidal effect grade: 5 (Herbicidal rate of 90% or more (almost completely withered))
[2]
  L (windgrass) herbicidal effect grade: 4 (Herbicidal rate of 70% or more and less than 90%)
[3]
  H (barnyard grass) herbicidal effect grade: 4 (Herbicidal rate of 70% or more and less than 90%)
[4]
  Herbicidal effect on D (Chinese sprangletop), foliage application: 5 (Herbicidal rate of 90% or more (almost completely withered))
[5]
  G: green foxtail, herbicidal effect grade: 4 (Herbicidal rate of 70% or more and less than 90%)
[6]
  Herbicidal effect on H (barnyard grass), foliage application: 5 (Herbicidal rate of 90% or more (almost completely withered))
[7]
  H: barnyard grass, herbicidal effect grade: 3 (Herbicidal rate of 40% or more and less than 70%)
[8]
  R (persian speedwell) herbicidal effect grade: 5 (Herbicidal rate of 90% or more (almost completely withered))
[9]
  Herbicidal effect, B: Japanese bulrush: 4 (Herbicidal rate of 70% or more and less than 90%)
[10]
  F: southern crabgrass, herbicidal effect grade: 0 (Herbicidal rate of 5% or less (almost no effect))
[11]
  G (green foxtail) herbicidal effect grade: 3 (Herbicidal rate of 40% or more and less than 70%)
[12]
  I (wild oat) herbicidal effect grade: 0 (Herbicidal rate of 5% or less (almost no effect))
[13]
  N: redroot pigweed, herbicidal effect grade: 5 (Herbicidal rate of 90% or more (almost completely withered))
[14]
  Herbicidal effect on E (rice flat sedge), foliage application: 5 (Herbicidal rate of 90% or more (almost completely withered))
[15]
  L: windgrass, herbicidal effect grade: 0 (Herbicidal rate of 5% or less (almost no effect))
[16]
  M: velvetleaf, herbicidal effect grade: 5 (Herbicidal rate of 90% or more (almost completely withered))
[17]
  Herbicidal effect, C: oval-leafed pondweed: 4 (Herbicidal rate of 70% or more and less than 90%)

## CCSc1ccc(-c2oc3ccc(C)cc3c2-c2c(O)c(C)nn(C)c2=O)cc1 [9-057]
[1]
  O (lambsquarters) herbicidal effect grade: 5 (Herbicidal rate of 90% or more (almost completely withered))
[2]
  L (windgrass) herbicidal effect grade: 3 (Herbicidal rate of 40% or more and less than 70%)
[3]
  H (barnyard grass) herbicidal effect grade: 3 (Herbicidal rate of 40% or more and less than 70%)
[4]
  Herbicidal effect on D (Chinese sprangletop), foliage application: 3 (Herbicidal rate of 40% or more and less than 70%)
[5]
  G: green foxtail, herbicidal effect grade: 5 (Herbicidal rate of 90% or more (almost completely withered))
[6]
  Herbicidal effect on H (barnyard grass), foliage application: 5 (Herbicidal rate of 90% or more (almost completely withered))
[7]
  H: barnyard grass, herbicidal effect grade: 3 (Herbicidal rate of 40% or more and less than 70%)
[8]
  R (persian speedwell) herbicidal effect grade: 5 (Herbicidal rate of 90% or more (almost completely withered))
[9]
  Herbicidal effect, B: Japanese bulrush: 4 (Herbicidal rate of 70% or more and less than 90%)
[10]
  F: southern crabgrass, herbicidal effect grade: 5 (Herbicidal rate of 90% or more (almost completely withered))
[11]
  G (green foxtail) herbicidal effect grade: 5 (Herbicidal rate of 90% or more (almost completely withered))
[12]
  I (wild oat) herbicidal effect grade: 3 (Herbicidal rate of 40% or more and less than 70%)
[13]
  N: redroot pigweed, herbicidal effect grade: 5 (Herbicidal rate of 90% or more (almost completely withered))
[14]
  Herbicidal effect on E (rice flat sedge), foliage application: 5 (Herbicidal rate of 90% or more (almost completely withered))
[15]
  L: windgrass, herbicidal effect grade: 0 (Herbicidal rate of 5% or less (almost no effect))
[16]
  M: velvetleaf, herbicidal effect grade: 4 (Herbicidal rate of 70% or more and less than 90%)
[17]
  Herbicidal effect, C: oval-leafed pondweed: 4 (Herbicidal rate of 70% or more and less than 90%)

## Cc1nn(C)c(=O)c(-c2c(-c3ccc(Cl)cc3)sc3cccc(F)c23)c1O [11-001]
[1]
  O (lambsquarters) herbicidal effect grade: 5 (Herbicidal rate of 90% or more (almost completely withered))
[2]
  L (windgrass) herbicidal effect grade: 0 (Herbicidal rate of 5% or less (almost no effect))
[3]
  H (barnyard grass) herbicidal effect grade: 0 (Herbicidal rate of 5% or less (almost no effect))
[4]
  Herbicidal effect on D (Chinese sprangletop), foliage application: 3 (Herbicidal rate of 40% or more and less than 70%)
[5]
  G: green foxtail, herbicidal effect grade: 0 (Herbicidal rate of 5% or less (almost no effect))
[6]
  Herbicidal effect on H (barnyard grass), foliage application: 3 (Herbicidal rate of 40% or more and less than 70%)
[7]
  H: barnyard grass, herbicidal effect grade: 0 (Herbicidal rate of 5% or less (almost no effect))
[8]
  R (persian speedwell) herbicidal effect grade: 5 (Herbicidal rate of 90% or more (almost completely withered))
[9]
  Herbicidal effect, B: Japanese bulrush: 5 (Herbicidal rate of 90% or more (almost completely withered))
[10]
  F: southern crabgrass, herbicidal effect grade: 0 (Herbicidal rate of 5% or less (almost no effect))
[11]
  G (green foxtail) herbicidal effect grade: 0 (Herbicidal rate of 5% or less (almost no effect))
[12]
  I (wild oat) herbicidal effect grade: 0 (Herbicidal rate of 5% or less (almost no effect))
[13]
  N: redroot pigweed, herbicidal effect grade: 5 (Herbicidal rate of 90% or more (almost completely withered))
[14]
  Herbicidal effect on E (rice flat sedge), foliage application: 5 (Herbicidal rate of 90% or more (almost completely withered))
[15]
  L: windgrass, herbicidal effect grade: 0 (Herbicidal rate of 5% or less (almost no effect))
[16]
  M: velvetleaf, herbicidal effect grade: 2 (Herbicidal rate of 20% or more and less than 40%)
[17]
  Herbicidal effect, C: oval-leafed pondweed: 5 (Herbicidal rate of 90% or more (almost completely withered))

## COCCOc1ccc(-c2oc3ccccc3c2-c2c(O)c(C)nn(C)c2=O)cc1 [Compound No. 8-007, 5-hydroxy-4-(2-(4-(2-methoxyethoxy)phenyl)benzofuran-3-yl)-2,6-dimethylpyridazin-3-(2H)-one]
[1]; three weeks after application
  herbicidal effect on lambsquarters (O): 4 (Herbicidal rate of 70% or more and less than 90%)
[2]; three weeks after application
  herbicidal effect on windgrass (L): 0 (Herbicidal rate of 5% or less (almost no effect))
[3]; three weeks after application
  herbicidal effect on barnyard grass (H): 5 (Herbicidal rate of 90% or more (almost completely withered))
[4]
  Herbicidal effect on D (Chinese sprangletop), foliage application: 3 (Herbicidal rate of 40% or more and less than 70%)
[5]
  G: green foxtail, herbicidal effect grade: 5 (Herbicidal rate of 90% or more (almost completely withered))
[6]
  Herbicidal effect on H (barnyard grass), foliage application: 5 (Herbicidal rate of 90% or more (almost completely withered))
[7]
  H: barnyard grass, herbicidal effect grade: 5 (Herbicidal rate of 90% or more (almost completely withered))
[8]; three weeks after application
  herbicidal effect on persian speedwell (R): 5 (Herbicidal rate of 90% or more (almost completely withered))
[9]
  Herbicidal effect, B: Japanese bulrush: 5 (Herbicidal rate of 90% or more (almost completely withered))
[10]
  F: southern crabgrass, herbicidal effect grade: 5 (Herbicidal rate of 90% or more (almost completely withered))
[11]; three weeks after application
  herbicidal effect on green foxtail (G): 5 (Herbicidal rate of 90% or more (almost completely withered))
[12]; three weeks after application
  herbicidal effect on wild oat (I): 1 (Herbicidal rate of 5% or more and less than 20%)
[13]
  N: redroot pigweed, herbicidal effect grade: 5 (Herbicidal rate of 90% or more (almost completely withered))
[14]
  Herbicidal effect on E (rice flat sedge), foliage application: 5 (Herbicidal rate of 90% or more (almost completely withered))
[15]
  L: windgrass, herbicidal effect grade: 0 (Herbicidal rate of 5% or less (almost no effect))
[16]
  M: velvetleaf, herbicidal effect grade: 3 (Herbicidal rate of 40% or more and less than 70%)
[17]
  Herbicidal effect, C: oval-leafed pondweed: 4 (Herbicidal rate of 70% or more and less than 90%)
